Assay results reported in ChEMBL document CHEMBL3739261, “Synthesis and antibacterial activity evaluation of C-5 side chain modified analogues of FYL-66, a potential agent against methicillin-resistant Staphylococcus aureus” (Medchemcomm, 2015).
≈ marks a conversion by molar mass, not a printed value.

How the values were obtained:
Staphylococcus aureus [1] = test: Antibacterial activity against methicillin-susceptible Staphylococcus aureus ATCC 25923 incubated for 18 hrs by broth microdilution method; type: functional; conditions: ATCC 25923, 18 h
Staphylococcus aureus [2] = test: Antibacterial activity against methicillin-susceptible Staphylococcus aureus CMCC 2603 incubated for 18 hrs by broth microdilution method; type: functional; conditions: CMCC 2603, 18 h
Staphylococcus aureus [3] = test: Antibacterial activity against methicillin-susceptible Staphylococcus aureus ATCC 29213 incubated for 18 hrs by broth microdilution method; type: functional; conditions: ATCC 29213, 18 h
Staphylococcus aureus [4] = test: Antibacterial activity against methicillin-susceptible Staphylococcus aureus ATCC 6538 incubated for 18 hrs by broth microdilution method; type: functional; conditions: ATCC 6538, 18 h
Staphylococcus aureus [5] = test: Antibacterial activity against methicillin-resistant Staphylococcus aureus ATCC 33591 incubated for 18 hrs by broth microdilution method; type: functional; conditions: ATCC 33591, 18 h
Staphylococcus aureus [6] = test: Antibacterial activity against methicillin-resistant Staphylococcus aureus ATCC 43300 incubated for 18 hrs by broth microdilution method; type: functional; conditions: ATCC 43300, 18 h
Escherichia coli = test: Antibacterial activity against Escherichia coli ATCC 25922 incubated for 18 hrs by broth microdilution method; type: functional; conditions: ATCC 25922, 18 h
Pseudomonas aeruginosa = test: Antibacterial activity against Pseudomonas aeruginosa ATCC 27853 incubated for 18 hrs by broth microdilution method; type: functional; conditions: ATCC 27853, 18 h
[7] = Cytotoxicity against HEK293A cells after 48 hrs by MTT assay; type: cell-based; conditions: Homo sapiens, HEK293-A
[8] = Cytotoxicity against human L02 cells after 48 hrs by MTT assay; type: cell-based; conditions: L02, 48 h
[9] = Solubility of compound in distilled water after 24 hrs by HPLC analysis; type: physicochemical
[10] = Octanol/water partition coefficient, log P of the compound by HPLC assay; type: physicochemical

Compound | MIC (Staphylococcus aureus [1]) [µg/mL] | MIC (Staphylococcus aureus [2]) [µg/mL] | MIC (Staphylococcus aureus [3]) [µg/mL] | MIC (Staphylococcus aureus [4]) [µg/mL] | MIC (Staphylococcus aureus [5]) [µg/mL] | MIC (Staphylococcus aureus [6]) [µg/mL] | MIC (Escherichia coli) [µg/mL] | MIC (Pseudomonas aeruginosa) [µg/mL] | IC50 [7] [µg/mL] | IC50 [8] [µg/mL] | solubility at 24 h [9] [µM] | logP [10]
O=C1O[C@@H](CN2CCCCC2)CN1c1ccc(-n2cc(-c3ccccn3)cn2)c(F)c1 | 32 (≈ 75.9 µM) | > 32 | 32 (≈ 75.9 µM) | 32 (≈ 75.9 µM) | 32 (≈ 75.9 µM) | 32 (≈ 75.9 µM) | > 32 | > 32 | > 400 | > 400 | 219 (≈ 92.4 µg/mL) | 3.1
O=C1O[C@@H](CO)CN1c1ccc(-n2cc(-c3ccccn3)cn2)c(F)c1 | – | – | – | – | – | – | – | – | > 400 | 59 (≈ 167 µM) | 56.4 (≈ 20 µg/mL) | 1.67
CN(CCO)C[C@H]1CN(c2ccc(-n3cc(-c4ccccn4)cn3)c(F)c2)C(=O)O1 | > 32 | > 32 | > 32 | > 32 | > 32 | > 32 | > 32 | > 32 | 367 (≈ 892 µM) | 134 (≈ 326 µM) | 669 (≈ 275 µg/mL) | 1.44
O=C1O[C@@H](CNC(=O)C(F)(F)F)CN1c1ccc(-n2cc(-c3ccccn3)cn2)c(F)c1 | > 64 | > 64 | > 64 | > 64 | > 64 | > 64 | > 32 | > 32 | > 400 | > 400 | 114 (≈ 51 µg/mL) | ≥ 1.78
COC(=O)NC[C@H]1CN(c2ccc(-n3cc(-c4ccccn4)cn3)c(F)c2)C(=O)O1 | 4 (≈ 9.72 µM) | 4 (≈ 9.72 µM) | 4 (≈ 9.72 µM) | 4 (≈ 9.72 µM) | 4 (≈ 9.72 µM) | 4 (≈ 9.72 µM) | > 32 | > 32 | 306 (≈ 744 µM) | 71 (≈ 173 µM) | 34.1 (≈ 14 µg/mL) | 2.03
O=C1O[C@@H](Cn2ccnn2)CN1c1ccc(-n2cc(-c3ccccn3)cn2)c(F)c1 | 4 (≈ 9.87 µM) | 4 (≈ 9.87 µM) | 4 (≈ 9.87 µM) | 4 (≈ 9.87 µM) | 4 (≈ 9.87 µM) | 4 (≈ 9.87 µM) | > 32 | > 32 | 225 (≈ 555 µM) | 49 (≈ 121 µM) | 247 (≈ 100 µg/mL) | 2
O=C1O[C@@H](CN2CCOCC2)CN1c1ccc(-n2cc(-c3ccccn3)cn2)c(F)c1 | > 32 | > 32 | > 32 | > 32 | > 32 | > 32 | > 32 | > 32 | > 400 | > 400 | 109 (≈ 46.2 µg/mL) | 2
NC(=O)[C@H]1CN(c2ccc(-n3cc(-c4ccccn4)cn3)c(F)c2)C(=O)O1 | 16 (≈ 43.6 µM) | 16 (≈ 43.6 µM) | 16 (≈ 43.6 µM) | 16 (≈ 43.6 µM) | 16 (≈ 43.6 µM) | 16 (≈ 43.6 µM) | > 32 | > 32 | 152 (≈ 414 µM) | 119 (≈ 324 µM) | 27.2 (≈ 9.99 µg/mL) | 1.59
CN1CCN(C[C@H]2CN(c3ccc(-n4cc(-c5ccccn5)cn4)c(F)c3)C(=O)O2)CC1 | > 32 | > 32 | > 32 | > 32 | > 32 | > 32 | > 32 | > 32 | 70 (≈ 160 µM) | 70 (≈ 160 µM) | 1690 (≈ 738 µg/mL) | 2.2
CCNC(=O)NC[C@H]1CN(c2ccc(-n3cc(-c4ccccn4)cn3)c(F)c2)C(=O)O1 | 8 (≈ 18.8 µM) | 8 (≈ 18.8 µM) | 8 (≈ 18.8 µM) | 8 (≈ 18.8 µM) | 8 (≈ 18.8 µM) | 8 (≈ 18.8 µM) | > 32 | > 32 | 29 (≈ 68.3 µM) | > 400 | 222 (≈ 94.1 µg/mL) | 2.45
CCN1CCN(C[C@H]2CN(c3ccc(-n4cc(-c5ccccn5)cn4)c(F)c3)C(=O)O2)CC1 | > 32 | > 32 | > 32 | > 32 | > 32 | > 32 | > 32 | > 32 | 99 (≈ 220 µM) | 99 (≈ 220 µM) | 706 (≈ 318 µg/mL) | 2.19
O=C1CCC(=O)N1C[C@H]1CN(c2ccc(-n3cc(-c4ccccn4)cn3)c(F)c2)C(=O)O1 | > 32 | > 32 | > 32 | > 32 | > 32 | > 32 | > 32 | > 32 | > 400 | > 400 | 45.3 (≈ 19.7 µg/mL) | 1.58
O=C(CF)NC[C@H]1CN(c2ccc(-n3cc(-c4ccccn4)cn3)c(F)c2)C(=O)O1 | 4 (≈ 9.68 µM) | 4 (≈ 9.68 µM) | 4 (≈ 9.68 µM) | 4 (≈ 9.68 µM) | 4 (≈ 9.68 µM) | 4 (≈ 9.68 µM) | > 32 | > 32 | > 400 | 106 (≈ 256 µM) | 61.8 (≈ 25.5 µg/mL) | 1.29
COC(=O)CC1CCN(C[C@H]2CN(c3ccc(-n4cc(-c5ccccn5)cn4)c(F)c3)C(=O)O2)CC1 | > 32 | > 32 | > 32 | > 32 | > 32 | > 32 | > 32 | > 32 | 224 (≈ 454 µM) | > 400 | 92.1 (≈ 45.5 µg/mL) | 1.78
O=C1CNC(=O)N1C[C@H]1CN(c2ccc(-n3cc(-c4ccccn4)cn3)c(F)c2)C(=O)O1 | > 32 | > 32 | > 32 | > 32 | > 32 | > 32 | > 32 | > 32 | > 400 | > 400 | 1630 (≈ 713 µg/mL) | 1.25
CS(=O)(=O)NC[C@H]1CN(c2ccc(-n3cc(-c4ccccn4)cn3)c(F)c2)C(=O)O1 | > 64 | > 64 | > 64 | > 64 | > 64 | > 64 | > 32 | > 32 | 314 (≈ 728 µM) | > 400 | 2.3 (≈ 0.992 µg/mL) | 1.38
O=C1O[C@@H](CN2CCN(CCO)CC2)CN1c1ccc(-n2cc(-c3ccccn3)cn2)c(F)c1 | > 32 | > 32 | > 32 | > 32 | > 32 | > 32 | > 32 | > 32 | > 400 | > 400 | 125 (≈ 58.1 µg/mL) | 1.09
CCC(=O)NC[C@H]1CN(c2ccc(-n3cc(-c4ccccn4)cn3)c(F)c2)C(=O)O1 | 4 (≈ 9.77 µM) | 4 (≈ 9.77 µM) | 4 (≈ 9.77 µM) | 4 (≈ 9.77 µM) | 4 (≈ 9.77 µM) | 4 (≈ 9.77 µM) | > 32 | > 32 | 389 (≈ 950 µM) | 204 (≈ 498 µM) | 147 (≈ 60 µg/mL) | 2.2
O=C(OC[C@H]1CN(c2ccc(-n3cc(-c4ccccn4)cn3)c(F)c2)C(=O)O1)c1ccccc1 | > 32 | > 32 | > 32 | > 32 | > 32 | > 32 | > 32 | > 32 | > 400 | > 400 | ≤ 65.4 | 4.21
CC(=O)OC[C@H]1CN(c2ccc(-n3cc(-c4ccccn4)cn3)c(F)c2)C(=O)O1 | > 32 | > 32 | > 32 | > 32 | > 32 | > 32 | > 32 | > 32 | > 400 | > 400 | 373 (≈ 148 µg/mL) | 2.09
O=C1CSC(=O)N1C[C@H]1CN(c2ccc(-n3cc(-c4ccccn4)cn3)c(F)c2)C(=O)O1 | > 32 | > 32 | > 32 | > 32 | > 32 | > 32 | > 32 | > 32 | 283 (≈ 624 µM) | > 400 | 26.9 (≈ 12.2 µg/mL) | 2.18
O=C1O[C@@H](CN2CCC(O)CC2)CN1c1ccc(-n2cc(-c3ccccn3)cn2)c(F)c1 | > 32 | > 32 | > 32 | > 32 | > 32 | > 32 | > 32 | > 32 | > 400 | > 400 | 45.9 (≈ 20.1 µg/mL) | 1.63
O=C1O[C@@H](CN2CCC(c3ccc(F)cc3)CC2)CN1c1ccc(-n2cc(-c3ccccn3)cn2)c(F)c1 | > 32 | > 32 | > 32 | > 32 | > 32 | > 32 | > 32 | > 32 | > 400 | > 400 | ≤ 19.4 | 5.78
CONC(=O)[C@H]1CN(c2ccc(-n3cc(-c4ccccn4)cn3)c(F)c2)C(=O)O1 | 16 (≈ 40.3 µM) | 16 (≈ 40.3 µM) | 16 (≈ 40.3 µM) | 16 (≈ 40.3 µM) | 16 (≈ 40.3 µM) | 16 (≈ 40.3 µM) | > 32 | > 32 | > 400 | > 400 | 78.1 (≈ 31 µg/mL) | ≥ 1.58
